Experimental data: patent US5919374A, “Method of disinfecting water with iodine species” (Iosolutions Incorporated, priority 1997, dated 1999)
Read-outs that look alike come from different tables or passages of the source.

Legend:
[1] = Concentration of iodine species in water leaving the crystalline iodine generators; format: physicochemical; conditions: pH 6-8, flow about 200 ml/minute
Protocol: Artesian water is fed through inlet conduit 8 past shut-off valve 10 through preconditioner 12 at a flow rate of not less than 2 l. per minute and not more than about 50 l. per minute preferably on average about 10 l. per minute at a pH 6-8, […] Main flow water passes through conduit 14 where some of the main flow is diverted to iodine generator assembly 15 through conduit 16 at a flow rate of about 200 ml/minute. The rest of the main flow flows through flow restrictor disk 20 such that an absolute pressure drop of about 2 psi is generated across flow restrictor disk 20. Flow restrictor 20 governs the rate of flow of diverted main flow which ultimately reaches iodine generator assembly 15. The main flow now proceeds through flow switch 22, such that, at a pre-set flow rate exceeding 2 l per minute, the flow switch 22 generates an electrical impulse which is fed to dual action solenoid valve 24. Such an impulse is continuous and causes solenoid valve 24 to open and remain so, as long as the flow rate is maintained above 2 l per minute. The rest of the main flow continues through conduit 14 uninterrupted until iodine liquor is blended back into the main flow at iodine species liquor injection port 44. […]

bacteria = conditions: pHs 5-7; cited from earlier work
E. coli = conditions: cited from earlier work
chickens [2] = test: Safe consumption of residual iodine by chickens
[3] = crystalline iodine in water; cited from earlier work
[4] = tested on: E. coli fecal streptococci; conditions: cited from earlier work
chickens [5] = conditions: cited from earlier work
viruses = conditions: higher pHs, e.g. 7-10; cited from earlier work
[6] = above pH 8, especially in the presence of dissolved iodides; Chang (1); cited from earlier work

| SMILES | concentration of iodine species concentrate ([1]; first iodine generator, about 20° C.) | concentration of resultant (saturated) iodine liquor ([1]; second iodine generator, about 28° C.) | antibacterial action (bacteria) | % Kill (E. coli) [%] | concentration by which E coli is effectively killed (E. coli) | concentration of residual iodine chickens could safely consume (chickens [2]) | solubility in water versus temperature [3] | % Kill ([4]; Black et al., 1968, 18 C., contact time 1 min, 0.5 ppm I2) [%] | % Kill ([4]; Ellis et al., 1989, 20 C., contact time 30 min, avg. 4 ppm I2) [%] | LD50 (chickens [5]) | virucidal action (viruses) | decomposition to iodide and iodate ions [6] |
| --- | --- | --- | --- | --- | --- | --- | --- | --- | --- | --- | --- | --- |
| II [iodine] | 200-240 ppm | 280-320 ppm | exhibits antibacterial action | 99.99 | 1-10 ppm | about 2 ppm | directly proportional to the temperature of the water | 99.99 | 99.99 | about 625 ppm | – | – |
| OI [HOI, hypoiodous acid] | – | – | – | – | – | – | – | – | – | – | efficient virucide | decomposes slowly |
